From ChEMBL document CHEMBL1142906, “Structure-activity relationships of novel piperazines as antagonists for the melanocortin-4 receptor” (Bioorg Med Chem, 2007)
pIC50: −log10 of the molar value.

Molecular target: Melanocortin receptor 4 (Homo sapiens, UniProt P32245)
Assay: Displacement of [125I]Nle4-D-Phe7-alpha-MSH from human MC4 receptor expressed in COS1 cells
Assay type: cell-based, COS-1

Melanocortin receptor 4, sequence (P32245 whole entry): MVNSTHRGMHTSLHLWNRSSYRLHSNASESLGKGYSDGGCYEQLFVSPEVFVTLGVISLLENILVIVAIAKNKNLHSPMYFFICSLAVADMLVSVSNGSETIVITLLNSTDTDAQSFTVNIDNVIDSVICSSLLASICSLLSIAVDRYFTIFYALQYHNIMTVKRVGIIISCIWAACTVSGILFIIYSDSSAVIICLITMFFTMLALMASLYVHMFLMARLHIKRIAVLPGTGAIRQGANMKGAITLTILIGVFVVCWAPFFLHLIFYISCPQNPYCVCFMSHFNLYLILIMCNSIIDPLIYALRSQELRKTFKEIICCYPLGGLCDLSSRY

| SMILES | pIC50 |
| --- | --- |
| CC(C)N1CCN(C(CN2CCN(CCCc3ccccc3-c3ccc(-c4ccccc4)cc3)CC2)c2ccc(F)cc2)CC1 (racemic) | 6.64 |
| CN1CCN(C(CN2CCN(CCCc3ccc4ccccc4c3)CC2)c2ccc(F)cc2)CC1 (racemic) | 5.92 |
| Fc1ccc(C(CN2CCN(CCCCc3cccc4ccccc34)CC2)N2CCNCC2)cc1 (racemic) | 6.52 |
| CCN1CCN(C(CN2CCN(CCCCc3cccc4ccccc34)CC2)c2ccc(F)cc2)CC1 (racemic) | 6.98 |
| CCCN1CCN(C(CN2CCN(CCCCc3cccc4ccccc34)CC2)c2ccc(F)cc2)CC1 (racemic) | 6.75 |
| Fc1ccc(C(CN2CCN(CCCCc3cccc4ccccc34)CC2)N2CCN(C3CC3)CC2)cc1 (racemic) | 6.83 |
| CN1CCN(C(CN2CCN(CCCCc3cccc4ccccc34)CC2)c2ccccc2)CC1 (racemic) | 6.13 |
| CN1CCN(C(CN2CCN(CCCCc3cccc4ccccc34)CC2)c2cccc(F)c2)CC1 (racemic) | 6.19 |
| CN1CCN(C(CN2CCN(CCCCc3cccc4ccccc34)CC2)c2ccccc2Br)CC1 (racemic) | 5.64 |
| CN1CCN(C(CN2CCN(CCCCc3cccc4ccccc34)CC2)c2cccc(Br)c2)CC1 (racemic) | 6.25 |
| CN1CCN(C(CN2CCN(CCCCc3cccc4ccccc34)CC2)c2ccc(Br)cc2)CC1 (racemic) | 6.80 |
| Cc1ccc(C(CN2CCN(CCCCc3cccc4ccccc34)CC2)N2CCN(C)CC2)cc1 (racemic) | 6.53 |
| COc1ccc(C(CN2CCN(CCCCc3cccc4ccccc34)CC2)N2CCN(C)CC2)cc1 (racemic) | 6.06 |
| CN1CCN(C(CN2CCN(CCCCc3cccc4ccccc34)CC2)c2ccc(C(F)(F)F)cc2)CC1 (racemic) | 6.65 |
| CN1CCN(C(CN2CCN(CCCCc3cccc4ccccc34)CC2)c2ccc([N+](=O)[O-])cc2)CC1 (racemic) | 6.58 |
| CN1CCN(C(CN2CCN(CCCCc3cccc4ccccc34)CC2)c2ccc(N)cc2)CC1 (racemic) | 5.44 |
| COc1ccc(CCCCN2CCN(CC(c3ccc(F)cc3)N3CCN(C)CC3)CC2)c2ccccc12 (racemic) | 6.64 |
| CC(C)N1CCN(C(CN2CCN(CCCCc3c(O)ccc4ccccc34)CC2)c2ccc(F)cc2)CC1 (racemic) | 6.88 |
| CC(C)Oc1ccc2ccccc2c1CCCCN1CCN(CC(c2ccc(F)cc2)N2CCN(C(C)C)CC2)CC1 (racemic) | 7.66 |
| CCC(CC)N1CCN(C(CN2CCN(CCCCc3c(OC)ccc4ccccc34)CC2)c2ccc(F)cc2)CC1 (racemic) | 7.08 |
| COc1ccc2ccccc2c1CCCCN1CCN(CC(c2ccc(F)cc2)N2CCN(C3CCCC3)CC2)CC1 (racemic) | 7.33 |
| CC(C)N1CCN(C(CN2CCN(CCc3ccccc3-c3ccccc3)CC2)c2ccc(F)cc2)CC1 (racemic) | 6.73 |
| COc1ccc2ccccc2c1CCCCN1CCN(CC(c2ccc(F)cc2)N2CCN(C(C)(C)C)CC2)CC1 (racemic) | 7.74 |
| CC(C)N1CCN(C(CN2CCN(CCCCc3ccccc3-c3ccccc3)CC2)c2ccc(F)cc2)CC1 (racemic) | 7.19 |
| CC(C)N1CCN(C(CN2CCN(CCCc3cccc(-c4ccccc4)c3)CC2)c2ccc(F)cc2)CC1 (racemic) | 6.81 |
| CC(C)N1CCN(C(CN2CCN(CCCc3ccc(-c4ccccc4)cc3)CC2)c2ccc(F)cc2)CC1 (racemic) | 6.61 |
| COc1cccc(-c2ccccc2)c1CCCN1CCN(CC(c2ccc(F)cc2)N2CCN(C(C)C)CC2)CC1 (racemic) | 7.82 |
| CC(C)N1CCN(C(CN2CCN(CCCc3ccccc3-c3ccccc3F)CC2)c2ccc(F)cc2)CC1 (racemic) | 7.43 |

| SMILES | pIC50 |
| --- | --- |
| CC(C)N1CCN(C(CN2CCN(CCCc3ccccc3-c3ccc(Cl)cc3)CC2)c2ccc(F)cc2)CC1 (racemic) | 7.27 |
| Cc1ccc(-c2ccccc2CCCN2CCN(CC(c3ccc(F)cc3)N3CCN(C(C)C)CC3)CC2)cc1 (racemic) | 7.38 |
| CC(C)N1CCN(C(CN2CCN(CCCc3ccccc3-c3ccc(C(C)(C)C)cc3)CC2)c2ccc(F)cc2)CC1 (racemic) | 7.00 |
| CN1CCN(C(CN2CCN(Cc3cccc4ccccc34)CC2)c2ccc(F)cc2)CC1 (racemic) | 6.23 |
| CN1CCN(C(CN2CCN(CCCc3cccc4ccccc34)CC2)c2ccc(F)cc2)CC1 (racemic) | 6.68 |
| CN1CCN(C(CN2CCN(CCCCc3cccc4ccccc34)CC2)c2ccc(F)cc2)CC1 (racemic) | 6.93 |
| Fc1ccc(C(CN2CCN(CCCCc3cccc4ccccc34)CC2)N2CCN(C3CCCCC3)CC2)cc1 (racemic) | 6.62 |
| CN1CCN(C(CN2CCN(CCCCCc3cccc4ccccc34)CC2)c2ccc(F)cc2)CC1 (racemic) | 6.66 |
| CC(C)N1CCN(C(CN2CCN(CCCc3ccccc3-c3ccc(C(F)(F)F)cc3)CC2)c2ccc(F)cc2)CC1 (racemic) | 7.20 |
| CC(C)N1CCN(C(CN2CCN(CCCc3ccccc3-c3ccc(OC(F)(F)F)cc3)CC2)c2ccc(F)cc2)CC1 (racemic) | 7.07 |
| Fc1ccc(C(CN2CCN(CCCCc3cccc4ccccc34)CC2)N2CCN(c3ccccc3)CC2)cc1 (racemic) | < 5.00 |
| CN1CCN(C(CN2CCN(CCc3ccc4ccccc4c3)CC2)c2ccc(F)cc2)CC1 (racemic) | 5.73 |
| COc1ccc2ccccc2c1CCCCN1CCN(CC(c2ccc(F)cc2)N2CCN(C(C)C)CC2)CC1 (racemic) | 7.90 |
| CN1CCN(C(CN2CCN(CCCCc3cccc4ccccc34)CC2)c2ccc(Cl)cc2)CC1 (racemic) | 6.88 |
| CN1CCN(C(CN2CCN(CCCCc3ccc4ccccc4c3)CC2)c2ccc(F)cc2)CC1 (racemic) | 6.47 |
| CC(C)N1CCN(C(CN2CCN(CCCCc3cccc4ccccc34)CC2)c2ccc(F)cc2)CC1 (racemic) | 7.14 |
| CC(C)N1CCN(C(CN2CCN(CCCCc3c(Br)ccc4ccccc34)CC2)c2ccc(F)cc2)CC1 (racemic) | 7.43 |
| CCOc1ccc2ccccc2c1CCCCN1CCN(CC(c2ccc(F)cc2)N2CCN(C(C)C)CC2)CC1 (racemic) | 7.59 |
| CC(C)N1CCN(C(CN2CCN(CCCc3ccccc3-c3ccc(N(C)C)cc3)CC2)c2ccc(F)cc2)CC1 (racemic) | 7.03 |
| CN1CCN(C(CN2CCN(CCc3cccc4ccccc34)CC2)c2ccc(F)cc2)CC1 (racemic) | 6.25 |
| CN1CCN(C(CN2CCN(CCCCCCc3cccc4ccccc34)CC2)c2ccc(F)cc2)CC1 (racemic) | 6.47 |
| CN1CCN(C(CN2CCN(Cc3ccc4ccccc4c3)CC2)c2ccc(F)cc2)CC1 (racemic) | 5.90 |
| COc1ccc(-c2ccccc2CCCN2CCN(CC(c3ccc(F)cc3)N3CCN(C(C)C)CC3)CC2)cc1 (racemic) | 7.37 |
| COc1ccc2ccccc2c1CCCCN1CCN(CC(c2ccc(F)cc2)N2CCN(C)CC2)CC1 (racemic) | 7.24 |
| CN1CCN(C(CN2CCN(CCCCc3cccc4ccccc34)CC2)c2ccc(-c3ccccc3)cc2)CC1 (racemic) | 6.12 |
| COc1ccc2ccccc2c1CCCCN1CCN(CC(c2ccc(F)cc2)N2CCN(C(C)C)CC2)CC1 (single isomer, unassigned; (-)) | 8.09 |
| COc1ccc2ccccc2c1CCCCN1CCN(CC(c2ccc(F)cc2)N2CCN(C(C)C)CC2)CC1 (stereo in doubt; (+)-10bg) | 7.66 |
